Read-outs that look alike come from different tables or passages of the source.
How the values were obtained:
human CYP2C9 [1] = target: T1, human CYP2C9 (Homo sapiens, UniProt P11712); conditions: human
human CYP2C19 [2] = target: T2, human CYP2C19 (Homo sapiens, UniProt P33261); test: biochemical
human CYP2D6 [3] = target: T3, human CYP2D6 (Homo sapiens, UniProt P10635); test: biochemical
human CYP1A2 [4] = target: T4, human CYP1A2 (Homo sapiens, UniProt P05177); conditions: human
T4 sequence (P05177 1-516): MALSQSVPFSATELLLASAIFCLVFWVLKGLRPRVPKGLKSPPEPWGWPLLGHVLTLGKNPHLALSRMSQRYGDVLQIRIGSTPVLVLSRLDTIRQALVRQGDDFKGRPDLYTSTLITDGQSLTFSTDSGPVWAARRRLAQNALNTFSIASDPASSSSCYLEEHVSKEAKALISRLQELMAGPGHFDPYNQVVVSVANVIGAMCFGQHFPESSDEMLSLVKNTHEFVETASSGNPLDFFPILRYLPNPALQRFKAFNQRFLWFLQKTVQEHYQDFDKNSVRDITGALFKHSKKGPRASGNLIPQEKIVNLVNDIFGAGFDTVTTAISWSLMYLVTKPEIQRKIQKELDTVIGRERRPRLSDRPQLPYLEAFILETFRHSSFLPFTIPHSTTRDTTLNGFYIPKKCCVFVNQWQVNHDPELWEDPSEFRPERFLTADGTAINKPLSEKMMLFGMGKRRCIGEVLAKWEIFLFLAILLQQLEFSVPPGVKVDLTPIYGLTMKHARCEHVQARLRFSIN

human CYP2D6 [5] = target: T3, human CYP2D6; conditions: human
human CYP1A2 [6] = target: T4, human CYP1A2; test: biochemical
human CYP2C19 [7] = target: T2, human CYP2C19; conditions: for CYP2C19 Efficacy (in parenthesis): human
human CYP2C9 [8] = target: T1, human CYP2C9; test: biochemical
CYP3A4 = CYP3A4 (Homo sapiens, UniProt P08684)
[9] = CYP2C19 IC50 (half-maximal inhibitory concentration)
[10] = CYP2D6 IC50 (half-maximal inhibitory concentration)
[11] = CYP1A2 IC50 (half-maximal inhibitory concentration)
[12] = CYP2C9 IC50 (half-maximal inhibitory concentration)

T3 sequence (P10635 whole entry): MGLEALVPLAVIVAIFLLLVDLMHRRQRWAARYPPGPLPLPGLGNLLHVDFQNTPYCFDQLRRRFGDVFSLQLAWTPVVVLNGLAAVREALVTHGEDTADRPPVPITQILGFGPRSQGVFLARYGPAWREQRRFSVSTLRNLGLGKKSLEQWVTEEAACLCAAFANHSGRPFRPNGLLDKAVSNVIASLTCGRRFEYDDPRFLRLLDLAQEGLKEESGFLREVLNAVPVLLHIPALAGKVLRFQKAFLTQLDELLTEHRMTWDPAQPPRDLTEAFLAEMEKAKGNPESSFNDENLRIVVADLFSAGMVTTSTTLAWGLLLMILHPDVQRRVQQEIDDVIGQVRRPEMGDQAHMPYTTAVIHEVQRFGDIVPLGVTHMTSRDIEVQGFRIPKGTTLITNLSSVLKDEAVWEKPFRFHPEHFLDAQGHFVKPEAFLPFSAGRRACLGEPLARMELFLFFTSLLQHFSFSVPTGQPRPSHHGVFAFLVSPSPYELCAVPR
T2 sequence (P33261 whole entry): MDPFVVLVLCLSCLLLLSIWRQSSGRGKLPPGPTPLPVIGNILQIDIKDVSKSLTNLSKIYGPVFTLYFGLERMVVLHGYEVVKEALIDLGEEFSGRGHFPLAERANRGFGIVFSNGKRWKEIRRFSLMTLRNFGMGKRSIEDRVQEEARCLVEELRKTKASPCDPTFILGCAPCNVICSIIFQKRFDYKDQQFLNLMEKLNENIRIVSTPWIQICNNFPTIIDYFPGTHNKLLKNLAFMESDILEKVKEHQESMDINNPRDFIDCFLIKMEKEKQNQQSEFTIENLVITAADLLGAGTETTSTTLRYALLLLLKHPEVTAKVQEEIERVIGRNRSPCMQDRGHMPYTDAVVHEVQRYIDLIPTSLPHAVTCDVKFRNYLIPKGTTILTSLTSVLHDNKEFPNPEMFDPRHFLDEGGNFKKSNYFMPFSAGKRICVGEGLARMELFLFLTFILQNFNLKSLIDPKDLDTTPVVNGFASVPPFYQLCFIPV
T1 sequence (P11712 whole entry): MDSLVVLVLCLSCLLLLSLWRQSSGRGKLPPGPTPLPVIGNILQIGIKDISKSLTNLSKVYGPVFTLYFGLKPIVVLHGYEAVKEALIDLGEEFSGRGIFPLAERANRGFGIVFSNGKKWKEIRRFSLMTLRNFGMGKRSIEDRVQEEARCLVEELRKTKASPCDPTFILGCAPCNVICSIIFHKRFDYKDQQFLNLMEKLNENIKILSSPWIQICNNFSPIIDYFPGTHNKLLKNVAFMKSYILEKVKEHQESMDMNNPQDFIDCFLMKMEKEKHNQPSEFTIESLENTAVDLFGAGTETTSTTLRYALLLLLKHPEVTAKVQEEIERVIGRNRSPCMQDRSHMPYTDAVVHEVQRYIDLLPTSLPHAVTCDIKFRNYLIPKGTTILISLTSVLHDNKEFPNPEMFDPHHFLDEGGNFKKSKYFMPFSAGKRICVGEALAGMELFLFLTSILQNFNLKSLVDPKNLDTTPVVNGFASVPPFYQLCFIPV
Chain of CYP3A4 (P08684 whole entry): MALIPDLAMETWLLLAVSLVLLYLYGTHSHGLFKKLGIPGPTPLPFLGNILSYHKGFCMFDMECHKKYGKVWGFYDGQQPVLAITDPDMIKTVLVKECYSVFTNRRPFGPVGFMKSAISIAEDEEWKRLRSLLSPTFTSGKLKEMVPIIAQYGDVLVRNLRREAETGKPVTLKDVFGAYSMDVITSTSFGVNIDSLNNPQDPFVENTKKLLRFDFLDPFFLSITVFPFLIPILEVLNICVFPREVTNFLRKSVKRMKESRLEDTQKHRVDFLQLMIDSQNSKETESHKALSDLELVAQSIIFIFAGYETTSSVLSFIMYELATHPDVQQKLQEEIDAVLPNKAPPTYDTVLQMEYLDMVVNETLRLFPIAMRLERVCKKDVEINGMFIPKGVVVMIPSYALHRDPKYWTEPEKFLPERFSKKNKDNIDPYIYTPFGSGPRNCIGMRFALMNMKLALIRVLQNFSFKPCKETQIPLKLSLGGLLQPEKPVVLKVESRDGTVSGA

Row | SMILES | CYP2C9 Efficacy (in parenthesis) (human CYP2C9 [1]) | IC50 (human CYP2C19 [2]; [9]) | IC50 (human CYP2D6 [3]; [10]) | CYP1A2 Efficacy (in parenthesis) (human CYP1A2 [4]) | CYP2D6 Efficacy (in parenthesis) (human CYP2D6 [5]) | IC50 (human CYP1A2 [6]; [11]) | CYP2C19 Efficacy (in parenthesis) (human CYP2C19 [7]) | IC50 (human CYP2C9 [8]; [12]) | IC50 (human CYP2D6 [3]) | IC50 (human CYP2C9 [8]) | further results
1 | O=C1c2ccccc2C(=O)C1C(=O)C(c1ccccc1)c1ccccc1 [Diphacinone] | 0.53 ± 0.74 (-101 ± 4) % | 34.8 µM | 32.3 µM | 28.28 ± 11.08 (-93 ± 7) % | 32.29 ± 4.12 (-49 ± 4) % | 28.3 µM | 34.81 ± 11.45 (-80 ± 23) % | 0.53 µM |  |  | IC50 (human CYP2C9 [8]; IC50 CYP2C9 assay): 0.5 µM
2 | CN(C)C(=O)Nc1ccc(Cl)c(Cl)c1 [Diuron] | 69.41 ± 26.11 (-48 ± 19) % | 39.5 µM | 42.1 µM | 0.86 ± 0.12 (-103 ± 3) % | 42.09 ± 18.16 (-73 ± 17) % | 0.86 µM | 39.45 ± 16.91 (-98 ± 5) % | 69.4 µM |  |  | 
3 | Clc1ccc(C(Cn2ccnc2)OCc2ccc(Sc3ccccc3)cc2)c(Cl)c1 (centres unmarked) [Fenticonazole nitrate] | 2.99 ± 0.41 (-103 ± 6) % |  |  | 16.12 ± 1.09 (-89 ± 8) % | 0.37 ± 0.02 (-82 ± 4) % |  | 2.65 ± 0.17 (-137 ± 20) % |  | 0.37 ± 0.02 µM | 2.99 ± 0.41 µM | IC50 (human CYP2C19 [2]): 2.65 ± 0.17 µM; IC50 (human CYP1A2 [6]): 16.1 ± 1.09 µM
4 | N=C(N)N/N=C/c1c(Cl)cccc1Cl [Guanabenz] |  |  |  |  |  |  |  |  |  |  | CYP3A4 AC50 (half-maximal activity concentration) (CYP3A4): Inactive; AC50 (human CYP2D6 [3]; CYP2D6 AC50 (half-maximal activity concentration)): 13.8 µM; AC50 (human CYP1A2 [6]; CYP1A2 AC50 (half-maximal activity concentration)): 14.4 µM; CYP2C19 AC50 (half-maximal activity concentration) (human CYP2C19 [7]): Inactive; AC50 (human CYP2C9 [8]; CYP2C9 AC50 (half-maximal activity concentration)): 37.7 µM
5 | CC(C)=CCOc1c2occc2cc2ccc(=O)oc12 [Imperatorin] | 0.62 ± 0.07 (-96 ± 6) % | 4.36 µM | 4.72 µM | 0.42 ± 0.17 (-97 ± 12) % | 4.72 ± 0.31 (-110 ± 6) % | 0.42 µM | 4.36 ± 0.0 (-126 ± 1) % | 0.62 µM |  |  | 
6 | CC(C)[N+](C)(CCC(C(N)=O)(c1ccccc1)c1ccccc1)C(C)C [Isopropamide] | 33.31 ± 14 (-72 ± 28) % | 35.6 µM | 0.7 µM | 30.41 ± 7.39 (-70 ± 30) % | 0.7 ± 0.32 (-99 ± 8) % | 30.4 µM | 35.59 ± 11.39 (-61 ± 21) % | 33.3 µM |  |  | 
7 | O=C1N(c2ccccc2)c2ccccc2C1(Cc1ccncc1)Cc1ccncc1 [Linopirdine] | 3.04 ± 0.74 (-95 ± 5) % |  |  | 24.14 ± 9.56 (-50 ± 8) % | 20.69 ± 9.02 (-61 ± 27) % |  | 1.71 ± 1.07 (-136 ± 7) % |  | 20.7 ± 9.02 µM | 3.04 ± 0.74 µM | IC50 (human CYP2C19 [2]): 1.71 ± 1.07 µM; IC50 (human CYP1A2 [6]): 24.1 ± 9.56 µM
8 | COC(=O)c1cc(Cl)ccc1[N+](=O)[O-] [Methyl 5-chloro-2-nitrobenzoate] |  |  |  |  |  |  |  |  |  |  | CYP3A4 AC50 (half-maximal activity concentration) (CYP3A4): Inactive; AC50 (human CYP2C19 [2]): 80 µM; AC50 (human CYP2D6 [3]): 61.4 µM; AC50 (human CYP1A2 [6]): 7.13 µM; AC50 (human CYP2C9 [8]): 49.3 µM
9 | CCCN(CCc1cccs1)[C@H]1CCc2c(O)cccc2C1 [Rotigotine] | 16.12 ± 1.09 (-56 ± 2) % |  |  | 31.04 ± 3.57 (-46 ± 10) % | 0.4 ± 0.09 (-102 ± 0) % |  | 2.55 ± 0.17 (-115 ± 10) % |  | 0.4 ± 0.09 µM | 16.1 ± 1.09 µM | AC50 (human CYP2C19 [2]): 2.55 ± 0.17 µM; IC50 (human CYP2C19 [2]): 2.55 ± 0.17 µM; AC50 (human CYP2D6 [3]): 0.4 ± 0.09 µM; AC50 (human CYP1A2 [6]): 31 ± 3.57 µM; IC50 (human CYP1A2 [6]): 31 ± 3.57 µM; AC50 (human CYP2C9 [8]): 16.1 ± 1.09 µM
10 | Clc1ccc(C(Cn2ccnc2)OCc2ccsc2Cl)c(Cl)c1 (centres unmarked) [Tioconazole] | 0.21 ± 0.09 (-104 ± 10) % | 0.25 µM | 2.79 µM | 4.61 ± 0.27 (-94 ± 11) % | 2.79 ± 0.58 (-109 ± 6) % | 4.61 µM | 0.25 ± 0.09 (-140 ± 3) % | 0.21 µM |  |  | 
11 | Clc1ccc(Nc2nnc(Cc3ccncc3)c3ccccc23)cc1 [Vatalanib] | 0.79 ± 0.66 (-96 ± 3) % |  |  | 2.03 ± 0.52 (-97 ± 14) % | 5.98 ± 9.87 (-107 ± 3) % |  | 1.1 ± 0.95 (-157 ± 44) % |  | 5.98 µM | 0.79 µM | IC50 (human CYP2C19 [2]; CYP2C19 IC50 (half-maximal inhibitory concentration), mean ± standard deviation from three experiments, qHTS): 1.1 ± 0.95 µM; IC50 (human CYP1A2 [6]; CYP1A2 IC50 (half-maximal inhibitory concentration), mean ± standard deviation from three experiments, qHTS): 2.03 ± 0.52 µM
12 | N#C/C(=C1/SC[C@@H](c2ccc(Cl)cc2Cl)S1)n1ccnc1 [luliconazole, reference compound] | 0.52 ± 0.12 (-109 ± 5) % | 0.46 µM | 0.22 µM | 0.33 ± 0.09 (-91 ± 7) % | 0.22 ± 0.03 (-105 ± 2) % | 0.33 µM | 0.46 ± 0.08 (-137 ± 13) % | 0.52 µM |  |  | 

Reference: article PMC12155096 (International Journal of Molecular Sciences, 2025)
